According to US12129313B2, “Anti-inflammatory use of peptide” (ENLITISA (SHANGHAI) PHARMACEUTICAL CO., LTD, priority 2017, dated 2024):
Where no end group is shown, it is not given here. [ ]: non-standard residue; d: D form. Dopa = N[C@@H](Cc1ccc(O)c(O)c1)C(=O)O; Hyp = O=C(O)[C@@H]1C[C@@H](O)CN1

Experiments:
IFN-γ = assay: Air pouch model: ELISA of exudate for IFN-γ; type: in vivo, mice; conditions: ±SD, doses and timing per Table 1
Method: (§1) Air pouches were produced by subcutaneous injection of sterile air (5 mL) into the intrascapular area of the mice. After three days, another injection of air (3 mL) was performed to maintain the pouches. In order to induce acute inflammation, three days after this final injection, animals received an injection of sterile carrageenan solution (CP Kelco, Taixing, Jiangsu Province, China; 1%, 0.5 mL; produced by adding 0.1 g of carrageenan powder into a beaker containing 10 mL of 0.9% saline solution and stirring). Mice were pre-treated with test samples or vehicle 1 hour before and 23 hours after the carrageenan injection into the subcutaneous air pouch. […]
(§2) Exudates were collected and volumes were quantified. The total number of cells was determined with a haematocytometer (ADVIA 2120 Hematology System, Siemens Healthineers). The exudates were centrifuged at 3000 rpm for 10 minutes at 4° C., and the supernatants were collected and stored at −20° C. for ELISA analysis using standard ELISA test kits (Biolegend™ from Dakewe Biotech Co., Beijing, China or Abcam™, Abcam (Shanghai) Trading Co. Ltd, China) and an ELISA reader (SH-1000 Hitachi, Japan) for tissue necrosis factor alpha (TNF-α), interleukin 1 beta (IL-1β), interleukin 6 (IL-6), interleukin 10 (IL-10), prostaglandin E2 (PGE2), interferon gamma (IFN-γ) and 5-hydroxytryptamine (5-HT; serotonin). […]

TNF-α, IL-6, and IL-1β = assay: Air Pouch Model II: ELISA of exudate; type: in vivo, mice; conditions: 300 μg/mouse into air pouch; FIGS. 2A-2C
Method: (§3) Essentially the same procedure as that described in Example 1 above was followed, to treat mice by administering test samples or vehicle in accordance with Table 6 below.
(§4) In this example, MAP Peptide powder was dissolved in saline water at a concentration of 0.6 mg/mL at pH 5.5. Then 0.5 mL of the solution was injected into each air pouch in the group.
In this example, ELISA analysis was carried out for TNF-α, IL-6, and IL-1β, which are shown graphically in FIGS. 2A-2C, respectively.

[1] = test system: polymorphous light eruption; assay: MAP Peptide liquid spray in subjects with polymorphous light eruption; type: in vivo; conditions: 1.5 mg/mL spray in WFI
Method: MAP Peptide was dissolved in water for injection (WFI; prepared from TC-RO-0.25T/h-2 water treatment system, Yangzhou […] Treatment Devices & Engineering Co., Ltd., Yangzhou, China). The concentration of the solution was 1.5 mg/mL. The solution was loaded into a spray device. Enrolled subjects in the study were diagnosed with polymorphous light eruption (an inflammatory condition characterized by a rash caused by sun exposure in people who have developed sensitivity to sunlight). Prior to treatment, the patients presented symptoms including skin redness, papules, itching and swelling. Subjects were required to use the liquid spray in the morning and the evening after facial cleansing.

C57BL/6 mice [2] = assay: Air Pouch Model II: histology scoring; type: in vivo
Method: as §3, §4

C57BL/6 mice [3] = assay: Air pouch model (carrageenan): exudate volume, pouch wall weight, exudate cell count; type: in vivo; design: Neutrophil (total cell count and classification) / Monocyte (total cell count and classification): unit not given here
Method: Healthy adult male C57BL/6 mice weighing between 20 and 30 g were supplied by Nanjing Biomedical Research Institute (NBRI) of Nanjing University, China. Prior to any experiments being conducted, mice were housed under standardized conditions (at a constant temperature or 22±2° C., with alternating 12 hour periods of light and darkness), and were fed on a standard mouse diet with water, for about a week.
General anesthesia was induced using intraperitoneal 3% chloral hydrate (Sinopharm Chemical Reagent Co., Ltd., Shanghai, China); 1 mL/10 g of body weight). The hair of the entire dorsum was shaved and depilated 1 day before sterile air injection.
(§5) Air pouches were produced by subcutaneous injection of sterile air (5 mL) into the intrascapular area of the mice. After three days, another injection of air (3 mL) was performed to maintain the pouches. In order to induce acute inflammation, three days after this final injection, animals received an injection of sterile carrageenan solution (CP Kelco, Taixing, Jiangsu Province, China; 1%, 0.5 mL; produced by adding 0.1 g of carrageenan powder into a beaker containing 10 mL of 0.9% saline solution and stirring). Mice were pre-treated with test samples or vehicle 1 hour before and 23 hours after the carrageenan injection into the subcutaneous air pouch. Animals were sacrificed 24 hours after the carrageenan injection.
The cavity was washed with 4 mL of sterile phosphate buffer solution (pH 7.4; prepared by dissolving 4 g of NaCl, 0.1 g of KCl, 1.749 g of Na2HPO4.12H2O and 0.1 g of KH2PO4 in ultrapure water, adjusting the pH to 7.4 with HCl and diluting with water to a total volume of 500 mL).
Exudates were collected and volumes were quantified. The total number of cells was determined with a haematocytometer (ADVIA 2120 Hematology System, Siemens Healthineers). The exudates were centrifuged at 3000 rpm for 10 minutes at 4° C., and the supernatants were collected and stored at −20° C. for ELISA analysis using standard ELISA test kits (Biolegend™ from Dakewe Biotech Co., Beijing, China or Abcam™, Abcam (Shanghai) Trading Co. Ltd, China) and an ELISA reader (SH-1000 Hitachi, Japan) for tissue necrosis factor alpha (TNF-α), interleukin 1 beta (IL-1β), interleukin 6 (IL-6), interleukin 10 (IL-10), prostaglandin E2 (PGE2), interferon gamma (IFN-γ) and 5-hydroxytryptamine (5-HT; serotonin).
After conducting some preliminary experiments to validate the model, an experiment was conducted in which mice were treated by administering test samples or vehicle in accordance with Table 1 below.
In Table 1, the M1-B, M2-B, M1-A and M2-A samples are MAP (Mefp-1) solutions of specified concentrations administered at different times relative to the carrageenan injection, as specified in the table. The solutions were prepared as follows. Blue mussels were harvested in the coastal area of Shandong Province, China. Mussel feet were collected, cut into small pieces and homogenized in an extraction buffer comprising 5% acetic acid in 4 mol/L of aqueous urea. The crude extracts were collected after centrifuging and then purified by liquid chromatography. The purified protein (semi-finished product; concentration 8 mg/mL; purity as measured by HPLC 91.72%; pH 4.2) was stored at 0° C. The solutions that were employed below were prepared by adding saline solution to this semi-finished product to obtain the concentrations described in Table 1.
Also in Table 1, “Test” is MAP Peptide, which was obtained from Innovagen AB, Sweden. The peptide was synthesized according to the relevant Mefp-1 amino acid sequence. The peptide powder was stored at −20° C. and dissolved in saline water at a concentration of 3.0 mg/mL, pH 5.5.
Dexamethasone (MedChemExpress, Shanghai, China) was obtained in powder form and dissolved in ultrapure water to obtain a solution with a concentration as described in Table 1.
All the substances listed in Table 1 were administrated topically by directly injecting into the air pouches.

IL-6 = assay: Air pouch model: ELISA of exudate for IL-6; type: in vivo, mice; conditions: ±SD, doses and timing per Table 1
Method: as §5
Exudates were collected and volumes were quantified. […] The exudates were centrifuged at 3000 rpm for 10 minutes at 4° C., and the supernatants were collected and stored at −20° C. for ELISA analysis using standard ELISA test kits (Biolegend™ from Dakewe Biotech Co., Beijing, China or Abcam™, Abcam (Shanghai) Trading Co. Ltd, China) and an ELISA reader (SH-1000 Hitachi, Japan) for tissue necrosis factor alpha (TNF-α), interleukin 1 beta (IL-1β), interleukin 6 (IL-6), interleukin 10 (IL-10), prostaglandin E2 (PGE2), interferon gamma (IFN-γ) and 5-hydroxytryptamine (5-HT; serotonin).

TNF-α = assay: Air pouch model: ELISA of exudate for TNF-α; type: in vivo, mice; conditions: ±SD, doses and timing per Table 1
Method: as §1, §2

C57BL/6 mice [4] = assay: Acute wound model: wound contraction ratio; type: in vivo
Method: 6-8 weeks old male C57BL/6 mice were supplied by Changzhou Ovens Experimental Animal Co. Ltd (Changzhou, Jiangsu Province, China). Prior to any experiments being conducted, mice were housed under standardized conditions (at a constant temperature of 22±2° C., with alternating 12 hour periods of light and darkness), and were fed on a standard mouse diet with water, for about a week.
General anesthesia was induced using intraperitoneal 3% chloral hydrate (1 mL/10 g of body weight). The hair on the back was shaved by a baby hair shaver and depilated with cream. The skin area was wiped and sterilized with 75% alcohol twice.
An EMS skin biopsy punch (Electron Microscopy Sciences, P.O. Box 550, 1560 Industry Road, Hatfield, PA, USA) with 8 mm diameter was used to make a round wounds on each side of the midline of the back. The full thickness of skin was removed and the depth of the wound reached the fascia. Wounds were left open without a suture.
Different drugs were administrated topically at 50 μL/wound, once daily from Day 0 to Day 12, as show in Table 8 below. […] The model group was given same amount of normal saline. There were 12 mice in each group.
For this experiment, MAP Peptide was obtained from GL Biochem (Shanghai) Ltd. The peptide powder was stored at −20° C. and dissolved in saline at a concentration of 33 μg/m L.
20 μL of respective solutions were applied onto each wound surface in the relevant groups.
Wounds were dressed with gauze and transparent dresser after drug administration. Photographs were taken for each wound every other day from Day 0. Photos were scanned into a computer, and wound areas calculated using ImageJ image analysis software (National Institutes of Health, […]).
Photographs were taken for each wound every other day from Day 0. Wound healing was calculated by the wound contraction ratio (WCR) WCR=(A0−At)/A0×100% where A0 and At refer to the initial area at Day 0 and the wound area at the date of measurement (time t), respectively.

C57BL/6 mice [5] = assay: Air pouch model: histology scoring of pouch wall (HE stained slices); type: in vivo; design: key to Inflammation score / Edema Score / Motility score: 1 = mild, 2 = moderate, 3 = severe
Method: as §5
Skin biopsies were taken from the air pouches. A part of the biopsy was fixed in formalin (produced by adding ultra pure water to 50 mL of a 40% formaldehyde solution (Nanchang Rain Dew Experimental Equipment Co., Ltd., Nanchang, […] Provence, China) up to a total volume of 500 mL) and analyzed by histological embedding in paraffin wax, sectioning and staining.
The histological specimens were analysed and an inflammation score, a motility score, an edema score and […] were estimated as follows.
The HE stained slices were observed under an optical microscope and were scored (1, 2 or 3 points) according to the perceived inflammation level (in cases showing only a small amount of inflammatory cells scattered in the area—1 point (mild); in cases where many inflammatory cells were observed—2 points (moderate); and, in cases with diffuse infiltration—3 points (severe)). A similar scoring system was employed for edema levels (3 points for most severe and 1 point for mild) after overall observation. Motility scores represented the density of neutrophils, which employed the same methodology as that employed for inflammatory cells.

[6] = 300 μg/mouse into air pouch, 1 hour before carrageenan
[7] = air pouch exudate, doses and timing per Table 1
[8] = ±SD, topical once daily, MAP 5 μg/wound, MAP Peptide 6.57 μg/wound
[9] = histological description in words

Question: What does the source list for AKPSY[Hyp][Hyp]T[Dopa]K [MAP Peptide]?
Answer: IFN-γ (IFN-γ): 377.31 ± 198.68; anti-inflammatory effects (ELISA for TNF-α, IL-6, IL-1β) (TNF-α, IL-6, and IL-1β): very strong anti-inflammatory effects; erythema alleviation efficiency compared to MAP spray of same concentration [1]: much more rapid erythema alleviation efficiency; malaise [1]: inhibited malaise; subjects whose erythema completely disappeared in a few hours [1]: 50%; tested subjects with itch completely relieved within 1 minute [1]: 50%; time to alleviation of most of the observed erythema [1]: ≤ 1 min; time to relief of itching ([1]; morning and evening): ≤ 1 min; Inflammation score (C57BL/6 mice [2]; 300 μg/mouse (0.6 mg/mL, 0.5 mL) into air pouch, 1 hour before carrageenan): 1.6; Edema Score (C57BL/6 mice [2]; [6]): 1.8; Fibroplastic proliferation score (C57BL/6 mice [2]; [6]): 0.2; Sum (C57BL/6 mice [2]; 300 μg/mouse, printed sums equal inflammation + edema scores only): 3.4; Leukocyte (total cell count and classification) (C57BL/6 mice [3]; [7]): 4.74e+06 mL⁻¹; Monocyte (total cell count and classification) (C57BL/6 mice [3]; [7]): 81.54 ×10^6; Neutrophil (total cell count and classification) (C57BL/6 mice [3]; [7]): 296.32 ×10^6; Pouch Wall Weight (C57BL/6 mice [3]; mean ± SD, 24 hours after carrageenan, doses and timing per Table 1): 0.60 ± 0.17 g; Exudate volume (C57BL/6 mice [3]; mean ± SD, 24 hours after carrageenan, injected into air pouch, per mouse: Positive 200 μg, M1-B/M1-A/Test 1.5 mg, M2-B/M2-A 4.5 mg, timing 1 hour (Positive, -B, Test) or 6 hours (-A), Table 1): 3.43 ± 0.06 mL; IL-6 (IL-6): 132.63 ± 137.34; TNF-α (TNF-α): 58.49 ± 28.72; improvement rate, (WCR MAP Peptide Group−WCR MAP Group)/WCR MAP Group×100% (C57BL/6 mice [4]; Day 6, versus MAP group): 52.96%; effect on wound healing compared with MAP (C57BL/6 mice [4]; acute wound model, Table 9): stronger effect on wound healing than MAP; wound contraction ratio (WCR), Day 2 (C57BL/6 mice [4]; [8]): 6.99 ± 2.02%; wound contraction ratio (WCR), Day 4 (C57BL/6 mice [4]; [8]): 18.65 ± 1.87%; wound contraction ratio (WCR), Day 6 (C57BL/6 mice [4]; [8]): 42.91 ± 0.57%; wound contraction ratio (WCR), Day 8 (C57BL/6 mice [4]; [8]): 48.73 ± 1.65%; wound contraction ratio (WCR), Day 0 (C57BL/6 mice [4]; ±SD, topical once daily, MAP 5 μg/wound, MAP Peptide 6.57 μg/wound, 8 mm full thickness wound): 0.00 ± 0%; Motility score (C57BL/6 mice [5]; density of neutrophils, 1 to 3 points, doses and timing per Table 1): 1.00; chronic inflammatory cell infiltration of the pouch wall (C57BL/6 mice [5]; [9]): mild to moderate chronic inflammatory cell infiltration; edema of the pouch wall (C57BL/6 mice [5]; [9]): interstitial edema; neutrophil infiltration of the pouch wall (C57BL/6 mice [5]; [9]): a small amount of neutrophil infiltration; Edema Score (C57BL/6 mice [5]; pouch wall histology, 1 mild to 3 most severe, doses and timing per Table 1): 1.00; Inflammation score (C57BL/6 mice [5]; pouch wall histology, 1 mild to 3 severe, doses and timing per Table 1): 1.67; Sum (C57BL/6 mice [5]; sum of inflammation, edema and motility scores): 3.67
